Measurements taken from paper PMC10224510, “Luteolin and Vernodalol as Bioactive Compounds of Leaf and Root Vernonia amygdalina Extracts: Effects on α-Glucosidase, Glycation, ROS, Cell Viability, and In Silico ADMET Parameters” (Pharmaceutics, 2023).

Target: α-glucosidase (EC 3.2.1.20, Saccharomyces cerevisiae type I)
Assay: enzyme inhibition with pNPG substrate, absorbance at […] nm
Type: biochemical

SMILES: O=c1cc(-c2ccc(O)c(O)c2)oc2cc(O)cc(O)c12 [luteolin]
- IC50: 16.2 µM
